Tested on: Tilapia aurea fry
Assay: Induction of feminization in Tilapia aurea fry via immersion treatment with ethinyl estradiol
Assay type: in vivo
Details: 3 minutes, 25° C., 3 dph fry
Experimental: Males and females of Tilapia aurea (about 12 months of age) provided by Prof. Chien-Hsien Kuo from the Department of Aquatic Biosciences at National Chiayi University (Taiwan) served as the parent fish in the following example. The male and female fish were separately raised in concrete ponds provided with water maintained at 25° C. and about 6 mg/L of dissolved oxygen under natural light, and were provided with feed ad libitum. Mating was carried out with a male-to-female ratio of 2:5. Fertilized eggs were flushed out from the oral cavity of the female fish to be collected, followed by incubation at 25° C. for 7 to 14 days. 3 dph fish fry were obtained.
Two immersion solutions respectively having ethinyl estradiol concentrations shown in Table 1 below were each prepared as follows. An appropriate amount of ethinyl estradiol was dissolved in 10 mL of ethanol, followed by mixing with 5 L of water in a water tank.
5 trials of feminization induction were conducted using a respective one of the two immersion solutions. Specifically, for each trial of feminization induction, the 3 dph Tilapia aurea fry (the amount thereof is shown in Table 1) were placed in the respective immersion solution at 25° C. for 3 minutes. […] After seven months of breeding, the gender of all the surviving fish was observed, and the feminization rate (i.e. the percentage of females) was calculated.

## C#C[C@]1(O)CC[C@H]2[C@@H]3CCc4cc(O)ccc4[C@H]3CC[C@@]21C [ethinyl estradiol]
Immersion 142.85 ppm, gender observed after seven months of breeding, trial 5
  Feminization rate (%) (percentage of females): 87%
Immersion 142.85 to 200 ppm, all 5 trials
  Feminization rate of each trial: ≥ 87%

— patent US10925261B2, “Method for inducing feminization in Tilapia aurea via immersion with ethinyl estradiol” (GALLANT OCEAN INTERNATIONAL, INC., priority 2018, dated 2021)
